Assay results taken from patent US20250242017A1, “HISTAMINE AND HRH1 SIGNALING ACTIVITY AS BIOMARKERS AND ASSOCIATED METHODS” (Board of Regents, The University of Texas System, priority 2022, published 2025).

Assays:
B16-GM tumors = test: B16-GM melanoma model
Method: Tumor inductions and treatment experiments. […] For LLC and B16-GM models, 2×10^5 tumor cells were subcutaneously injected into the back of C57BL/6 mice. […] Treatments were given as single agents or in combination, with the following regimen for each drug. […] Treatments were initiated on day 5 after tumor inoculation for the entire duration of the experiment. […] Anti-VISTA antibody (clone 13F3, Bio X Cell, 300 mg/mouse) was injected subcutaneously every day for 10 days starting on day 7, followed by continuous injection every 2 days for the rest of the duration of the experiment (Le Mercier et al., 2014). For in vivo CD8+ T cell depletion, mice were treated with 200 mg of anti-CD8 antibody every 3-4 days starting at 3 days before B16-GM tumor inoculation. […] Tumor size was measured by calipers every second or third day when tumors were palpable, and the volume was calculated using the formula V=as (width×width×length)/2.
Isolation of tumor-infiltrating cells. Mouse tumor samples were chopped with scissors and then subjected to enzymatic digestion with 2 mg/ml collagenase A (Roche) in DMEM for 1 hour at 37° C. Next, tissues were filtered through 70-mm filters (BD Biosciences) to achieve single-cell suspensions. After treatment with red blood cell lysis buffer for 5 minutes at room temperature, all samples were washed and re-suspended in flow cytometry buffer (phosphate-buffered saline/0.5% albumin/2 mM EDTA) or DMEM depending on further use.
Flow cytometry staining and analysis. Live single cells were sub-gated by staining with Fixable Viability Dye eFluor 450 (eBioscience) for 15 minutes at 4° C. For blocking of Fc receptors, cells were then pre-incubated with purified anti-CD16/32 antibody (clone 93, BioLegend) for 10 minutes on ice before immunostaining. After one wash with flow cytometry buffer, cells were incubated with appropriate dilutions of various combinations of the following antibodies. Primary antibodies to cell surface markers directed against CD45 (30-F11), CD3 (145-2C11), CD8a (53¬6.7), CD11b (M1/70), Gr-1 (RB6-8C5), F4/80 (BM8), CD206 (C068C2), I-A/I-E (M5/114.15.2), VISTA (MHSA), Tim-3 (B8.2C12), CD11c (N418), CD24 (M1/69), GITRL (YGL 386), ICOSL (HK5.3), 4-1BBL (TKS-1), CD276 (RTAA15), OX40L (RM134L), Galectin-9 (RG9-35), PD-L1 (10F.9G2), and PD-L2 (TY25) were from BioLegend; against HRH1 (480054), from R&D Systems; against HRH1 (AHR-001), from Alomone Labs; and against Siglec-F (E50-2440), from BD Biosciences. For intracellular staining, cells were fixed, permeabilized using Foxp3/Transcription Factor Staining Buffer Set (eBioscience), and then stained with fluorochrome-conjugated antibodies to Ki-67 (16A8) and PRF1 (S16009A) from BioLegend.

CD8+ T cells = test: In vitro co-culture of macrophages with T cells; format: cell-based, mouse
Method: In vitro co-culture with T cells. Spleens from wild-type C57BL/6 or BALB/c mice were harvested and filtered through a […] cell strainer to generate a single-cell suspension. After red blood cell lysis, splenocytes were counted and plated in complete Roswell Park Memorial Institute 1640 medium supplemented with […] b-mercaptoethanol and 10 mM HEPES onto 12-well plates coated with […] anti-CD3 (clone 145-2C11, BioLegend) and […] anti-CD28 (clone 37N, BioLegend) antibodies. Spleen T cells were activated for 48 hours before co-culture with macrophages. To educate the macrophages, we co-cultured naïve BMDMs with tumor cells at a ratio of 1:1 or with tumor cell-derived conditioned medium for 48 hours. Macrophages were seeded with activated T cells at a ratio of 5:1. After co-culture for another 24 or 48 hours, T cells were collected for flow cytometry analysis.
(§1) Flow cytometry staining and analysis.

CT26 tumors [1] = test: CT26 tumor model with or without OVA-induced allergic airway disease; format: in vivo, mouse
From the text: (§2) Tumor inductions and treatment experiments.
(§3) Isolation of tumor-infiltrating cells.
as §1

[2] = system: bone marrow-derived macrophages (BMDMs); details: TCM-treated WT BMDMs; FEXO 10 mM, 48 h
Method: Generation of naïve bone marrow-derived macrophages (BMDMs). Bone marrow cells were collected from femurs obtained from 8- to 10-week-old C57BL/6 or BALB/c mice. After red blood cell lysis, bone marrow cells were seeded at a density of 5×10^6 cells/150×15 mm Petri dish and cultured at 37° C. in complete Dulbecco modified Eagle medium (DMEM) containing 20% L929 cell-conditioned medium, providing macrophage colony-stimulating factor. Macrophages were ready for use on day 7 following a fresh medium change on day 4.
Macrophage polarization and stimulation. To polarize macrophages toward an M1-like phenotype, we stimulated PBMC-derived macrophages or BMDMs with IFN-g (20 ng/ml, PeproTech) for 48 hours. To induce an M2-like phenotype, we treated THP-1-derived macrophages or BMDMs with IL-4 (20 ng/mL, PeproTech) for 48 hours. […] To stimulate macrophages with tumor cell-derived conditioned medium (TCM), we cultured BMDMs with complete medium containing 50% TCM (volume).
Flow cytometry staining and analysis. Live single cells were sub-gated by staining with Fixable Viability Dye eFluor 450 (eBioscience) for 15 minutes at 4° C. For blocking of Fc receptors, cells were then pre-incubated with purified anti-CD16/32 antibody (clone 93, BioLegend) for 10 minutes on ice before immunostaining. […]

[3] = system: OVA-transduced EO771 tumor cells; test: In vitro T cell killing assay (OT-I); format: cell-based, mouse; details: in presence of FEXO-treated macrophages
Method: In vitro T cell killing assays. Ovalbumin (OVA)-expressing EO771 cells alone or co-cultured with macrophages at a ratio of 1:2 were plated into 12-well plates. The following day, OT-I T cells pre-activated by OVA257-264 were added to the plates at the indicated ratio. After co-culture for another 48 hours, the tumor cells were harvested and counted to determine T cell killing ability.

EMT6 tumors = test: EMT6 tumor model with or without OVA-induced allergic airway disease; format: in vivo, mouse
From the text: as §2, §3, §1

4T1 tumors = test: 4T1 mammary tumor model; format: in vivo, mouse
From the text: as §2, §3, §1

EO771 tumors = system: EO771 tumors
From the text: as §2, §3, §1

CT26 tumors [4] = test: CT26 colorectal carcinoma model; details: WT mice
Method: Tumor inductions and treatment experiments. […] For the CT26 model, 2×10^5 CT26 cells were subcutaneously injected into the back of BALB/c mice. […] Treatments were given as single agents or in combination, with the following regimen for each drug. […] Treatments were initiated on day 5 after tumor inoculation for the entire duration of the experiment. […] Anti-VISTA antibody (clone 13F3, Bio X Cell, 300 mg/mouse) was injected subcutaneously every day for 10 days starting on day 7, followed by continuous injection every 2 days for the rest of the duration of the experiment (Le Mercier et al., 2014). […] Tumor size was measured by calipers every second or third day when tumors were palpable, and the volume was calculated using the formula V=as (width×width×length)/2.

macrophages = test: Intracellular calcium measurement (Fluo-Forte); format: cell-based, mouse; details: after histamine or TCM treatment
Method: Intracellular calcium measurement. Intracellular Ca2+ was determined using the Fluo-Forte calcium assay kit (Enzo Life Sciences) according to the manufacturer's instructions. Fluorescence was measured using a BD FACSCanto II Flow Cytometer.

LLC tumors = test: LLC lung carcinoma model; format: in vivo, mouse; details: FEXO-treated vs vehicle-treated
From the text: as §2, §3, §1

[5] = FEXO-treated WT mice vs controls
[6] = FEXO-treated vs vehicle-treated WT mice
[7] = PD-L1-/- mice treated with FEXO

CC(C)(C(=O)O)c1ccc(C(O)CCCN2CCC(C(O)(c3ccccc3)c3ccccc3)CC2)cc1 (centres unmarked) [FEXO, fexofenadine]
VISTA expression on TAMs (B16-GM tumors; [5]): Reduced VISTA expression
inhibition of B16-GM tumor growth under CD8+ T cell depletion (B16-GM tumors; FEXO-treated WT mice, anti-CD8 antibodies): blocked by depleting CD8+ T cells
numbers of IFN-g+ and PRF1+ CD8+ T cells (B16-GM tumors; [6]): increased numbers
tumor growth (B16-GM tumors; [6]): reduced tumor growth
B16-GM lung metastases (B16-GM tumors; after surgical removal of primary melanomas at 100 mm3, FEXO vs vehicle): inhibited
T cell activation/killing (CD8+ T cells; FEXO treatment of HRH1-/- macrophages vs vehicle-treated HRH1-/- macrophages): did not increase
TAM-mediated T cell suppression (T cell proliferation, IFN-g, PRF1) (CD8+ T cells; FEXO-treated macrophages cultured with WT splenic T cells): abrogated TAM-mediated T cell suppression
allergy-increased CT26 tumor growth (CT26 tumors [1]; OVA-allergic BALB/c mice): largely blocked by FEXO treatment
sensitivity of tumors to ICB therapy with FEXO treatment (CT26 tumors [1]; allergic mice, ICB+FEXO): largely restored sensitivity
M1-M2 polarization status (MHCII, CD206) [2]: polarized macrophages toward an M1-like phenotype
OT-I cell-mediated killing of OVA-transduced EO771 tumor cells [3]: increased ovalbumin (OVA)-specific OT-I cell-mediated killing
allergy-accelerated EMT6 tumor growth (EMT6 tumors; OVA-allergic BALB/c mice): largely blocked by FEXO treatment
sensitivity of tumors to ICB therapy with FEXO treatment (EMT6 tumors; allergic mice, ICB+FEXO): largely restored sensitivity
VISTA expression on alveolar macrophages from lung metastases (4T1 tumors; FEXO-treated WT mice bearing 4T1 tumor vs controls): downregulated
VISTA on TAMs (4T1 tumors; FEXO-treated vs vehicle-treated): Decreased VISTA on TAMs
VISTA expression on TAMs (EO771 tumors; [5]): Reduced VISTA expression
numbers of IFN-g+ and PRF1+ CD8+ T cells (EO771 tumors; [6]): increased numbers
tumor growth (EO771 tumors; [6]): reduced tumor growth
survival (EO771 tumors; [7]): dramatically prolonged survival
tumor inhibition (EO771 tumors; [7]): most effective tumor inhibition
CT26 tumor growth (CT26 tumors [4]): delayed tumor growth
intracellular free Ca2+ levels (macrophages): higher in WT macrophages than in HRH1−/− macrophages and FEXO-treated WT macrophages
VISTA on TAMs (LLC tumors): Decreased VISTA on TAMs
